Reference: PubChem BioAssay (NCI)
Where “and” joins values, the source holds several entries; their conditions need not be identical. Equal values may be shown once.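 Each compound was tested at five concentrations against cells in 96-well plates for 48 hours. GI50: concentration for 50% inhibition of growth. TGI is the concentration that stops growth completely.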

How the values were obtained:
Assay in all cases: inhibition of tumour cell growth, NCI panel, 48 h
HOP-92 NSCLC = system: HOP-92 NSCLC
PC-3 prostate = system: PC-3 prostate
HL-60(TB) leukemia = system: HL-60(TB) leukemia
HCT-15 colon = system: HCT-15 colon
BT-549 breast = system: BT-549 breast
TK-10 renal = system: TK-10 renal
OVCAR-3 ovarian = system: OVCAR-3 ovarian
RXF 393 renal = system: RXF 393 renal
786-0 renal = system: 786-0 renal
MOLT-4 leukemia = system: MOLT-4 leukemia
ACHN renal = system: ACHN renal
SW-620 colon = system: SW-620 colon
LOX IMVI melanoma = system: LOX IMVI melanoma
NCI-H23 lung = system: NCI-H23 lung
NCI-H226 lung = system: NCI-H226 lung
MDA-MB-435 = system: MDA-MB-435
IGROV1 ovarian = system: IGROV1 ovarian
NCI-H522 lung = system: NCI-H522 lung
OVCAR-8 ovarian = system: OVCAR-8 ovarian
SN12C renal = system: SN12C renal
HCT-116 colon = system: HCT-116 colon
OVCAR-5 ovarian = system: OVCAR-5 ovarian
DU-145 prostate = system: DU-145 prostate
SK-MEL-5 melanoma = system: SK-MEL-5 melanoma
M14 melanoma = system: M14 melanoma
NCI/ADR-RES ovarian = system: NCI/ADR-RES ovarian
MDA-MB-231 breast = system: MDA-MB-231 breast
HCC-2998 colon = system: HCC-2998 colon
CAKI-1 renal = system: CAKI-1 renal

CN(C)CCCN1c2ccccc2Sc2ccc(Cl)cc21
GI50 (HOP-92 NSCLC): 1.82 µM | TGI (HOP-92 NSCLC): 8.71 µM | GI50 (PC-3 prostate): 11.9 µM and 4.52 µM | TGI (PC-3 prostate): 26.3 µM and 17.3 µM | GI50 (HL-60(TB) leukemia): 4.98 µM and 11.6 µM | TGI (HL-60(TB) leukemia): 20.7 µM and 28.6 µM | GI50 (HCT-15 colon): 3.69 µM and 4.7 µM | TGI (HCT-15 colon): 14.3 µM and 16.6 µM | GI50 (BT-549 breast): 10.9 µM and 11.2 µM | TGI (BT-549 breast): 23.5 µM and 24.4 µM | GI50 (TK-10 renal): 9.64 µM and 6.76 µM | TGI (TK-10 renal): 22.3 µM and 20.3 µM | GI50 (OVCAR-3 ovarian): 3.83 µM and 6.36 µM | TGI (OVCAR-3 ovarian): 12.6 µM and 18.8 µM | GI50 (RXF 393 renal): 3.16 µM and 2.85 µM | TGI (RXF 393 renal): 12.2 µM and 11 µM | GI50 (786-0 renal): 3.81 µM and 12 µM | TGI (786-0 renal): 14.2 µM and 26.6 µM | GI50 (MOLT-4 leukemia): 4.78 µM and 6.84 µM | TGI (MOLT-4 leukemia): 18.4 µM and 23.7 µM | GI50 (ACHN renal): 4.06 µM and 5.71 µM | TGI (ACHN renal): 14.8 µM and 18.3 µM | GI50 (SW-620 colon): 3.57 µM and 3.69 µM | TGI (SW-620 colon): 13.7 µM and 14.6 µM | GI50 (LOX IMVI melanoma): 10.8 µM and 10.3 µM | TGI (LOX IMVI melanoma): 23.4 µM and 24.5 µM | GI50 (NCI-H23 lung): 8.92 µM and 13.3 µM | TGI (NCI-H23 lung): 22.2 µM and 27.6 µM | GI50 (NCI-H226 lung): 13.1 µM and 15.2 µM | TGI (NCI-H226 lung): 29.8 µM and 29.1 µM | GI50 (MDA-MB-435): 1.94 µM and 2.21 µM | TGI (MDA-MB-435): 4.04 µM and 6.09 µM | GI50 (IGROV1 ovarian): 11.7 µM and 4.63 µM | TGI (IGROV1 ovarian): 26.7 µM and 18.4 µM | GI50 (NCI-H522 lung): 2.74 µM and 2.79 µM | TGI (NCI-H522 lung): 7.16 µM and 8.9 µM | GI50 (OVCAR-8 ovarian): 4.07 µM and 9.24 µM | TGI (OVCAR-8 ovarian): 15.5 µM and 22.8 µM | GI50 (SN12C renal): 3.85 µM and 4.87 µM | TGI (SN12C renal): 14.8 µM and 17.7 µM | GI50 (HCT-116 colon): 3.28 µM and 3.6 µM | TGI (HCT-116 colon): 10.9 µM and 12.8 µM | GI50 (OVCAR-5 ovarian): 5.2 µM and 11.8 µM | TGI (OVCAR-5 ovarian): 17.6 µM and 24.8 µM | GI50 (DU-145 prostate): 11.7 µM and 11.2 µM | TGI (DU-145 prostate): 24.1 µM and 23.4 µM | GI50 (SK-MEL-5 melanoma): 1.71 µM and 1.77 µM | TGI (SK-MEL-5 melanoma): 3.11 µM and 3.35 µM | GI50 (M14 melanoma): 2.03 µM and 2.58 µM | TGI (M14 melanoma): 3.89 µM and 6.18 µM | GI50 (NCI/ADR-RES ovarian): 11.9 µM and 9.23 µM | TGI (NCI/ADR-RES ovarian): 25.1 µM and 22.4 µM | GI50 (MDA-MB-231 breast): 1.99 µM and 2.1 µM | TGI (MDA-MB-231 breast): 5.35 µM and 6.87 µM | GI50 (HCC-2998 colon): 1.97 µM | TGI (HCC-2998 colon): 4.14 µM | GI50 (CAKI-1 renal): 6.78 µM and 6.91 µM | TGI (CAKI-1 renal): 20.7 µM and 20.8 µM
